Literature values in patent US20240139350A1, “RADIOACTIVELY LABELED LIGAND FOR FIBROBLAST ACTIVATION PROTEIN-ALPHA IMAGING AGENT AND PREPARATION METHOD THEREFOR” (FIVE ELEVEN PHARMA, INC, priority 2021, published 2024).

Assays:
[1] = tested on: FAP-positive tumor; settings: after 24 hours, relative to FAPI-02
[2] = coordination to Ga^3+
[3] = target: T1, murine FAP (Mus musculus, UniProt P97321); settings: human embryonic kidney cells expressing mouse FAP
T1 construct: expressed in transfected cells; host or cells: human embryonic kidney cells
T1 sequence (P97321 1-761): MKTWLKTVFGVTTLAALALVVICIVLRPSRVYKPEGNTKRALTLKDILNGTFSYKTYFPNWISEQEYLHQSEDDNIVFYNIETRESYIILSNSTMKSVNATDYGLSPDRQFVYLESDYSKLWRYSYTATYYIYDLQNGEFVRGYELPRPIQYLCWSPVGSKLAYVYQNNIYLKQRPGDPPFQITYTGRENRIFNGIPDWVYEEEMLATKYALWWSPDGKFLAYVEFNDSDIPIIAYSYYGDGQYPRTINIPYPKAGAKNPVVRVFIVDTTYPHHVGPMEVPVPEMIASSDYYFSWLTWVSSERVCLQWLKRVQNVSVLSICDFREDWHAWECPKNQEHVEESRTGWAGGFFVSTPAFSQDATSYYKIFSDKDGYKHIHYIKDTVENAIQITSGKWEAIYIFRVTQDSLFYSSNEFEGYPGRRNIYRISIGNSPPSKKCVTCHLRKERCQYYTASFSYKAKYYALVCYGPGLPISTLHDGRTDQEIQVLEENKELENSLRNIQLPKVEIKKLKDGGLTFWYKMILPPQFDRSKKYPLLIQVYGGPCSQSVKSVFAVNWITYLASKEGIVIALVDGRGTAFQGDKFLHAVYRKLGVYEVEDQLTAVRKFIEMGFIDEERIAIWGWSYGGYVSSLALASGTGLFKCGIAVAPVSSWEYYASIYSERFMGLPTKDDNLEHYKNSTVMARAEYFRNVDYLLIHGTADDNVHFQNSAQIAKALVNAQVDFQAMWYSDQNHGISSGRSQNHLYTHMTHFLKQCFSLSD

[4] = target: T2, dipeptidyl peptidase 4 (CD26) (Homo sapiens, UniProt P27487); settings: human embryonic kidney cells transfected with CD26
T2 construct: expressed in transfected cells; host or cells: human embryonic kidney cells
T2 sequence (P27487 whole entry, species assumed): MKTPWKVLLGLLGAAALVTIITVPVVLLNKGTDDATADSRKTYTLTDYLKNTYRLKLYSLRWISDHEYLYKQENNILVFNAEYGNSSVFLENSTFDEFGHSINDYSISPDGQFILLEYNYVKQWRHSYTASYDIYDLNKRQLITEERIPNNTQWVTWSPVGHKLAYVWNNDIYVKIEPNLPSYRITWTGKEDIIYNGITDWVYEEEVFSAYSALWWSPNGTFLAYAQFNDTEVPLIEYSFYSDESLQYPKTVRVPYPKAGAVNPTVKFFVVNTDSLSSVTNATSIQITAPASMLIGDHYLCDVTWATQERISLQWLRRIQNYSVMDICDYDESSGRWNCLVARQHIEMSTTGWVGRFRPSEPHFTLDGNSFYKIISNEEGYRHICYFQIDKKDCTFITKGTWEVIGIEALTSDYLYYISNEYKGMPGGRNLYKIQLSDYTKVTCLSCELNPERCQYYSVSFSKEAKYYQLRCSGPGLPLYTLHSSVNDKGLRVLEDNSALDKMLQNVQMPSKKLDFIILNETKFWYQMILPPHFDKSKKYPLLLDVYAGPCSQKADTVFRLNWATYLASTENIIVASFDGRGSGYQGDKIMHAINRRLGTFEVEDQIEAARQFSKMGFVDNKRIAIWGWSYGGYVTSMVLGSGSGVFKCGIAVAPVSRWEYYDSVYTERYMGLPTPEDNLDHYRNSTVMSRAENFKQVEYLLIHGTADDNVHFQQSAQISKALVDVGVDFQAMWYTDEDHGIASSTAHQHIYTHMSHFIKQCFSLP

SMILES | thermodynamically stable constant log KML [2] | binding to murine FAP [3] | also measured
N#C[C@@H]1CC(F)(F)CN1C(=O)CNC(=O)c1ccnc2ccc(OCCCN3CCN(C(=O)CN4CCN(CC(=O)O)CCN(CC(=O)O)CCN(CC(=O)O)CC4)CC3)cc12 (177Lu complex, metal not drawn) [FAPI-04] | – | – | effective tumor uptake higher than FAPI-02 [1]: 100%
CC1(N(CC(=O)O)CC(=O)O)CN(CC(=O)O)CCN(CC(=O)O)C1 [AAZTA] | 22.18 | – | –
O=C(O)CN1CCN(CC(=O)O)CCN(CC(=O)O)CCN(CC(=O)O)CC1 [DOTA] | 21.3 | – | –
N#C[C@@H]1CCCN1C(=O)CNC(=O)c1ccnc2ccc(OCCCN3CCN(C(=O)CN4CCN(CC(=O)O)CCN(CC(=O)O)CCN(CC(=O)O)CC4)CC3)cc12 [FAPI-02] | – | strong binding | –
N#C[C@@H]1CC(F)(F)CN1C(=O)CNC(=O)c1ccnc2ccc(OCCCN3CCN(C(=O)CN4CCN(CC(=O)O)CCN(CC(=O)O)CCN(CC(=O)O)CC4)CC3)cc12 [FAPI-04] | – | strong binding | binding to CD26 [4]: did not bind
O=C(O)CN1CCN(CC(=O)O)CCN(CC(=O)O)CC1 [NOTA] | 31.0 | – | –
